Assay results published in patent US20240157358A1, “BIOSENSING SYSTEM AND METHOD FOR IN-SITU DETERMINATION OF METASTASIS IN A SAMPLE” (City University of Hong Kong, priority 2022, published 2024).

Test system: C. elegans
Assay: C. elegans chemotaxis assay in the microfluidic biosensor
Assay type: in vivo, Caenorhabditis elegans
Details: for nematode chemotaxis score: single substance at lower concentrations, corresponding to metastatic cancer, heat maps FIGS. 7C and 7D; for CIPBS level (chemotaxis index relative to PBS): CI level of PBS buffer standards defined as 1, FIG. 3B
Procedure: It was cultured in the OP50, a strain of Escherichia coli used to maintain C. elegans cultures, with nematode growth media (NGM) plate. Before each biosensing assay, the viability of C. elegans was assessed by probing with an inoculation needle.
All materials required for performing biosensing assay in the present biosensing system should be kept at room temperature before loading C. elegans into the biosensor to maintain their viability. Briefly, medium supernatants at −80° C. and biosensor initially stored in a 4° C. freezer were thawed at room temperature. Adult C. elegans were collected in 1.5 mL tubes and washed twice with phosphate-buffered saline (PBS) buffer (Gibco, Waltham, MA, USA) before assay. All clinical samples to be tested were transported at room temperature, and the biosensing assay should be completed within 4 hours from the time of collection. The clinical samples should be mixed well before loading, and about 1 ml of the sample was taken into a 1.5 ml tube for each biosensing assay. The remaining samples could be sealed and stored at −80° C. for further use.
During each biosensing assay, approximately 50-100 μl of PBS containing 100 C. elegans was gently pipetted into the middle of the second layer where the organism loading region is disposed without compromising the viability of C. elegans and disrupting the integrity of the NGM agar, thereby increasing the reliability of the biosensing assay results. Once the C. elegans were settled, the pressure pump was started immediately to flow the test samples, comparative sample and/or negative control to the corresponding bio-incubation chambers from the fluid inlets at the first layer and through different fluid channels to reach the second layer without damaging the NGM agar integrity. In certain embodiments, an optimal flow rate of the fluid applied to the biosensor is about 0.5 mL/min. […] By this optimal flow rate, all fluid channels can be primed in 1 min and about 10 to 100 μl droplets can be formed at each fluid outlet of the fluid channels. Because of that, the volume of the test samples applied in each fluid inlet at each round of biosensing assay can be less than 1 mL. […]
To standardize the quantitative readouts, a chemotaxis index (CI) relative to the CI measured from PBS (CIPBS) was derived by the following Equation:
The CIPBS level readouts were evaluated with the present biosensing system using a range of glutamate concentration levels that included concentrations detected from MCF-7 and MDA-MB-231 clusters (0.02 mg/ml, 0.04 mg/ml, 0.06 mg/ml, 0.08 mg/ml, and 0.1 mg/ml) (FIG. 3A). CI level readouts were modified for parallel comparison of all concentrations, with the CI level obtained from PBS buffer standards defined as 1.

Q: How did the nematode chemotaxis score turn out when `O=C(O)[C@@H]1CCCN1` [L-proline] was run?
A: around 6

Q: How did the “CIPBS level (chemotaxis index relative to PBS)” value (glutamate concentration 0.02 mg/ml) turn out when `N[C@@H](CCC(=O)O)C(=O)O` [glutamate] was run?
A: 3.6±0.03

Q: And the “CIPBS level (chemotaxis index relative to PBS)” value (glutamate concentration 0.1 mg/ml (highest tested))?
A: 1.1±0.04

Q: With `NC(N)=O` [urea] as the compound, how does the nematode chemotaxis score read?
A: around 6
